In patent publication US11090276B2, “Formulation of fat-soluble vitamin” (BASF SE, priority 2014, dated 2021):

Test: Loss of MK-7 on direct compression into tablets with calcium or magnesium excipients
Type: physicochemical
Conditions: directly compressed with excipients such as calcium or magnesium
Excerpt: However, vitamins K1 and K2 degrade when formulated in a conventional dosage form, such as a tablet, in the presence of mineral salts, in particular calcium or magnesium salts. Moreover, during formulation of the dosage form, there is a still yet further opportunity for degradation. When directly compressed along with some excipients in a tablet such as calcium or magnesium, a serious reduction in the amount of MK-7 present after tableting can be observed, such as up to 30% reduction in MK-7. As MK-7 is expensive, that is not an acceptable loss on formulation. The MK-7 degradation appears to be accelerated in the presence of calcium or magnesium. As calcium and magnesium are valuable minerals, it is desirable to be able to formulate vitamins in general and MK-7 in particular with calcium and magnesium.

CC(C)=CCC/C(C)=C/CC/C(C)=C/CC/C(C)=C/CC/C(C)=C/CC/C(C)=C/CC/C(C)=C/CC1=C(C)C(=O)c2ccccc2C1=O [MK-7]
reduction in MK-7 after tableting: up to 30%
